Assay results reported in patent US7374890B2, “Methods for identifying compounds that modulate ΔTRα2 activity” (University of Massachusetts, priority 2000, dated 2008).
Each block holds one molecule with its values, some of them ahead of it.

Legend:
[1] = system: binding of p29^GFP vesicles to F-actin; test: modified in vitro actin binding assay with p29^GFP-labeled vesicles; type: biochemical, rat; conditions: for competition with native myosin V for T4-dependent binding of p29 to F-actin: ~2-3 pmol polypeptide/50 μl mixture, 10 nM T4
Experimental: To define the specific region(s) of the myosin V tail that interact with the p29 vesicle, a series of deletion mutations were created based on the dominant negative effect of exogenous myosin V tail on p29 vesicle binding. Competition analysis of the myosin V deletion mutations on T4-dependent binding of p29 vesicles to F-actin was performed using a modified in vitro assay in which a GFP-tagged p29 fusion protein (p29^GFP) replaced the radioaffinity labeled native p29 (Farwell et al., 1990, J. Biol. Chem. 265:18546-18553; Farwell et al., 1993, J. Biol. Chem. 268:5055-5062). This allowed direct evaluation of the binding of fluorescent vesicles to F-actin without affinity radiolabeling of the p29 and subsequent SDS-PAGE analysis.
Specific fluorescence at 510 nm (excitation, 488 nm) was then determined in the resuspended Triton-insoluble pellets.
To determine if the myosin V tail could be captured by the p29^GFP vesicle, an exogenous myosin V^tail was introduced into astrocytes constitutively expressing p29^GFP by infection with Ad5-ΔMyo V^tail virus particles and examined the effects of T4 on the binding of the myosin V^tail to immunopurified p29^GFP vesicles. Astrocytes expressing p29^GFP were grown in serum-free media and treated for 16 hours with 1 mM bt2cAMP and 100 nM hydrocortisone. A separate pool of astrocytes was treated in serum-free media supplemented with 10 μM retinoic acid. Cells were collected by scraping, and lysed by two freeze-thaw cycles. […] Triton-soluble (vesicle) and Triton-insoluble (F-actin) fractions were separated by microflige centrifugation. Triton pellets were resuspended in 300 μl of PBS and fluorescence at 510 nm (excitation 488 nm) determined and relative fluorescence was reported as arbitrary units. Cells were treated with 10 nM T4 for twenty minutes and a Triton-soluble supernatant was prepared. Vesicles containing the p29^GFP were immunoprecipitated by anti-GFP IgG (2 μg/ml) and protein in the immunoprecipitates were resolved by SDS-PAGE. Immunoblot analysis of vesicle-associated myosin V was performed using the anti-myosin V antibody directed against the C-terminus.
The quantity of each mutant protein synthesized was determined by [^35 S]-methionine incorporation. Astrocytes expressing p29^GFP were grown in serum-free media and treated for 16 hours with […] bt2cAMP and 100 nM hydrocortisone. p29^GFP V-lysate and F-lysate were prepared as described herein. 100 μg aliquots of p29^GFP V-lysate and F-lysate were pre-incubated, in triplicate, for 20 minutes at 37° C. in the presence of individual Δ myosin V mutant proteins (˜2-3 pmol polypeptide/50 μl mixture) were added to the actin-binding assay and pre-incubated for 20 minutes at 37° C. T4 (10 nM) was then added, the mixtures incubated for 20 minutes at 37° C., and F-actin bound, fluorescent p29^GFP vesicles were then isolated in the Triton-insoluble pellet.
V lysates prepared from astrocytes over-expressing p29^GFP were pre-incubated for 30 minutes at room temperature with antisera raised against ΔTRα2, ΔTRα1, the C-terminus of MyoV (encoded by MyoV^tail, FIG. 5), the coiled-coil region of MyoV (encoded by MyoV^coil-coil, FIG. 5) and GFP (green fluorescent protein). T4 (10 nM) and actin fiber-containing F-lysate was then added, the mixtures incubated at 37° C. for 20 minutes, and the Triton-insoluble fraction isolated by centrifugation.

[2] = system: cerebellar granule neurons; test: FM1-43 synaptic vesicle recycling in cultured cerebellar granule neurons, spontaneous activity; type: cell-based, rat
Experimental: All of the major components of hormone-induced vesicle trafficking in astrocytes (actin fibers, myosin V (also referred to as myosin 5a and myo 5a), and recycling vesicles) are also present in nerve terminals. Therefore, the effects of thyroid hormone on synaptic vesicle recycling in the presynaptic nerve terminal were examined using myo5a-dependent synaptic vesicle (SV) recycling in cultured cerebellar granule neurons. In these experiments, rat granule neurons were grown on laminin-coated coverslips in the absence or presence of hormone and synaptic vesicle recycling was examined using FM1-43 (a styryl dye used in the art for studying endocytosis and exocytosis, e.g., in synaptic vesicle uptake and release assays; Molecular Probes, Inc. Eugene, Oreg.). […] In contrast, granule neurons grown in thyroid hormone supplemented medium released only 15-20% of the FM1-43 after six minutes of incubation and the hormone specificity of retention of FM1-43 in the “reserve pool” was identical to that determined for myo5a-dependent, endocytosis of p29 vesicles (D2p29 vesicles) in astrocytes.
Cerebellar granule neurons were examined because thyroid hormone has a profound influence on granule neuron viability during cerebellar maturation (Xiao and Nikodem, 1998, Front. Biosci. 3: A52-57; Rabie et al., 1980, Brain Res. 190:409-414), and because of the effects of the loss of myo5a on synaptic vesicle homeostasis (Bridgman, 1999, J. Cell Biol. 146:1045-1060). […]
Experiments were conducted to determine whether synaptic vesicle endocytosis could be altered by the hormone status of the neuron. […] The dye was then removed and the number, intensity and retention of the FM1-43 in random nerve terminals immediately after washing and after six minutes of autonomous activity were analyzed in paraformaldehyde fixed cells (Ryan, 1999, J. Neurosci.: 19:1317-1323). Fluorescence in single nerve terminals (ROI=7×7 pixels) and in an adjacent segment of the neuronal fiber were measured for 40-45 individual nerve terminals. […] Fluorescence intensity was determined using NIH Image software. The total FM1-43 fluorescence in a nerve terminal represents the sum of the dye-loaded synaptic vesicles in the readily releasable and the reserve pools.
By allowing recurrent activity, the FM1-43 filled synaptic vesicles present in the readily releasable pool will be progressively depleted. […] By measuring the total FM1-43 content in random nerve terminals immediately after loading and at 30 second intervals for six minutes of spontaneous activity, the influence of hormones on the distribution of recycling synaptic vesicles between the readily releasable and reserve pools was estimated.

[3] = system: cerebellar granule neurons; test: release of FM1-43-loaded synaptic vesicles from cerebellar granule neurons under continuous stimulus; type: cell-based, rat
Experimental: Granule neurons were grown for 7 days and rendered hormone free by growth in serum-free medium as detailed above. Coverslips were then placed in a perfusion chamber, mounted on the stage of a laser scanning confocal microscope and perfused at 1 ml/min at 25° C. with perfusion buffer (119 mM NaCl, 2.5 mM KCl, 2 mM CaCl2, 2 mM MgCl2, 25 mM HEPES (pH 7.4), 30 mM glucose, and […] AP-5). The effects of different hormones on synaptic vesicle trafficking were then determined. […] Depolarizing KCl was then removed from the perfusion buffer and the cells were exposed to FM1-43 for an additional 30 seconds to insure complete loading of recycling synaptic vesicles. Loaded cells were then washed free of dye and the cells were perfused for ten minutes at rest.
Images of a single field of neuronal fibers were then taken immediately before adding a second depolarizing solution (perfusion buffer containing 50 mM KCl) and at one and two minutes after beginning the continuous stimulation by 50 mM KCl. Thirty to forty-five individual FM1-43 labeled nerve terminals were identified in the baseline images (taken prior to depolarization) and the change in fluorescence (DF) for each nerve terminal determined at the one and two minute time points. FIGS. 11A and 11B show the results of analysis of the hormone specificity of synaptic vesicle trafficking (FIG. 11A) and the influence of individual myo5a mutants (FIG. 11B) on synaptic vesicle transport in granule neurons.
To evaluate the role of myo5a in synaptic vesicle transport, three different myo5a constructs were introduced into the neurons by replication-deficient adenoviral vectors (Δmyo5a^tail(MyoV^tail), Δmyo5a^c-term(MyoV^1830)and ΔMyo5a^CC(MyoV^cc) see FIG. 5) as described above. […] Neurons were infected with purified Ad5-constructs (MOI=10) 48 hours prior to the synaptic vesicle trafficking study, and allowed to recover in hormone (T4) supplemented medium. […] This modest influence of the VBD mutant on synaptic vesicle retention is likely to be due to the loss of the kinesin-binding domain that limits its delivery to nerve terminals.

Molecule: N[C@@H](Cc1cc(I)c(Oc2ccc(O)c(I)c2)c(I)c1)C(=O)O [T3, 3,5, 3′-triiodothyronine]
p29^GFP vesicle binding to F-actin, dose-response ([1]; 0-100 nM, below the highest concentration): did not increase
increase in p29^GFP vesicle binding to F-actin ([1]; 100 nM, highest concentration of hormone used): 10-20%
endocytosed FM1-43 released ([2]; after three minutes of spontaneous activity): > 80%
uptake of FM1-43 ([2]; immediately after loading): No differences
retention of recycling synaptic vesicles ([3]; 10 nM hormone, continuous stimulation by 50 mM KCl): no effect

Molecule: Δ myosin ^1830: myosin V tail deletion mutant, residues 1830-1852; vesicle-binding domain (NPSSLALETIQIPASLGLGFIAR)
increase of the t1/2 of FM1-43 retention ([3]; expression from Ad5 construct (MOI=10), T4 supplemented medium): 50%

competition with native myosin V for T4-dependent binding of p29 to F-actin [1]: did not compete
B1: A myosin V middle: myosin V truncation mutant corresponding to amino acids 504-1307 (protein)
chain: GILDLLDEECKMPKGTDDTWAQKLYNTHLNKCALFEKPRMSNKAFIIKHFADKVEYQCEGFLEKNKDTVFEEQIKVLKSSKFKMLPELFQDDEKAISPTSATSSGRTPLTRVPVKPTKGRPGQTAKEHKKTVGHQFRNSLHLLMETLNATTPHYVRCIKPNDFKFPFTFDEKRAVQQLRACGVLETIRISAAGFPSRWTYQEFFSRYRVLMKQKDVLGDRKQTCKNVLEKLILDKDKYQFGKTKIFFRAGQVAYLEKLRADKLRAACIRIQKTIRGWLLRKRYLCMQRAAITVQRYVRGYQARCYAKFLRRTKAATTIQKYWRMYVVRRRYKIRRAATIVIQSYLRGYLTRNRYRKILREYKAVIIQKRVRGWLARTHYKRTMKAIVYLQCCFRRMMAKRELKKLKIEARSVERYKKLHIGMENKIMQLQRKVDEQNKDYKCLMEKLTNLEGVYNSETEKLRNDVERLQLSEEEAKVATGRVLSLQEEIAKLRKDLEQTRSEKKSIEERADKYKQETDQLVSNLKEENTLLKQEKETLNHRIVEQAKEMTETMERKLVEETKQLELDLNDERLRYQNLLNEFSRLEERYDDLKEEMTLMLNVPKPGHKRTDSTHSSNESEYTFSSEFAETEDIAPRTEEPIEKKVPLDMSLFLKLQKRVTELEQEKQLMQDELDRKEEQVFRSKAKEEERPQIRGAELEYESLKRQELESENKKLKNELNELRKALSEKSAPEVTAPGAPAYRVLMEQLTSVSEELDVRKEEVLILRSQLVSQKEAIQPKDDKNTMTDSTILLEDVQKMKDKGE

competition with native myosin V for T4-dependent binding of p29 to F-actin [1]: did not compete
B2: myosin V tail lacking the last 44 residues (residues 953-1803): myosin V tail truncation mutant, residues 953-1803 (protein)
chain: LEGVYNSETEKLRNDVERLQLSEEEAKVATGRVLSLQEEIAKLRKDLEQTRSEKKSIEERADKYKQETDQLVSNLKEENTLLKQEKETLNHRIVEQAKEMTETMERKLVEETKQLELDLNDERLRYQNLLNEFSRLEERYDDLKEEMTLMLNVPKPGHKRTDSTHSSNESEYTFSSEFAETEDIAPRTEEPIEKKVPLDMSLFLKLQKRVTELEQEKQLMQDELDRKEEQVFRSKAKEEERPQIRGAELEYESLKRQELESENKKLKNELNELRKALSEKSAPEVTAPGAPAYRVLMEQLTSVSEELDVRKEEVLILRSQLVSQKEAIQPKDDKNTMTDSTILLEDVQKMKDKGEIAQAYIGLKETNRLLESQLQSQKRSHENEAEALRGEIQSLKEENNRQQQLLAQNLQLPPEARIEASLQHEITRLTNENLYFEELYADDPKKYQSYRISLYKRMIDLMEQLEKQDKTVRKLKKQLKVFAKKIGELEVGQMENISPGQIIDEPIRPVNIPRKEKDFQGMLEYKREDEQKLVKNLILELKPRGVAVNLIPGLPAYILFMCVRHADYLNDDQKVRSLLTSTINSIKKVLKKRGDDFETVSFWLSNTCRFLHCLKQYSGEEGFMKHNTSRQNEHCLTNFDLAEYRQVLSDLAIQIYQQLVRVLENILQPMIVSGMLEHETIQGVSGVKPTGLRKRTSSIADEGTYTLDSILRQLNSFHSVMCQHGMDPELIKQVVKQMFYIVGAITLNNLLLRKDMCSWSKGMQIRYNVSQLEEWLRDKNLMNSGAKETLEPLIQAAQLLQVKKKTDDDAEAICSMCNALTTAQIVKVLNLYTPVNEFEERVSVSFIRTIQ
